Results from patent US10023591B2, “Heterocyclic derivatives and use thereof” (C&C RESEARCH LABORATORIES, priority 2014, dated 2018).

Assays:
[1] = test system: STAT1; assay: STAT1 reporter gene assay (luciferase), U2OS stable cell line pGL4-STAT1-TA-luc, IFN-γ stimulation; format: cell-based, human; settings: Homo sapiens, IFN-γ 50 ng/mL, 8 hours, read-out: IC50 (μM) pSTAT1
How it was run: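 U2OS cells stably carrying a STAT1-driven luciferase reporter were treated with serially diluted compounds plus IFN-γ (50 ng/mL final) for 8 h at 37 °C in 10% FBS medium. Luciferase read after lysis; parallel plate assessed for cytotoxicity by CellTiter-Glo.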

[2] = test system: MDA-MB-468 breast cancer cell line; assay: Cell growth inhibition assay, MDA-MB-468 (CellTiter-Glo); format: cell-based; settings: Homo sapiens, MDA-MB-468, 96 hours
Procedure: The inhibitory effects of the compounds of the present invention against the growth of cancer cells were evaluated as shown below. The cancer cell lines including prostate cancer cell lines (LNCaP, DU-145), stomach cancer cell line (NCI-N87), and breast cancer cell lines (MDA-MB-468) were cultured under the protocol provided by each supplier. A medium supplemented with 10 ng/mL of IL-6 was used for LNCaP, a prostate cancer cell line, when treated with a drug. Each type of cells to be used in experiments was sub-cultured in a 96-well plate by counting the exact number of cells using Tali™ Image-based Cytometer (Life Technologies). In a 96-well plate, DU-145 was employed with 3,000 cells/well; NCI-N87 was employed with 5,000 cells/well; and LNCaP and MDA-MB-468 were employed with 10,000 cells/well. The cells were treated with the compounds listed in Examples which were diluted in various concentrations. Upon completion of the compounds treatment, LNCaP, DU-145, NCI-N87 cells were cultured at 37° C. under 5% CO2 for 96 hours, and MDA-MB-468 cells were cultured at 37° C. in air for 96 hours. Subsequently, the cells were observed under microscope and drug precipitation and particular findings were investigated and recorded. And then, the 96-well plate was placed at room temperature for 30 minutes, added with 20 pt/well of CellTiter-Glo solution (Cat No. G7573, Promega) and shaken for 10 minutes, followed by being subjected to the measurement using PHERAstar™ microplate reader (BMG LABTECH) according to the supplier's general luminometer protocol. Wells where only culture liquid added without cell plating were used as a negative control, whereas wells where culture liquid containing 0.1% DMSO instead of the compounds listed in Examples were used as a positive control.

[3] = test system: STAT3; assay: STAT3 reporter gene assay (luciferase), LNCaP stable cell line pSTAT3-TA-luc, IL-6 stimulation; format: cell-based, human; settings: Homo sapiens
How it was run: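 LNCaP cells stably carrying pSTAT3-TA-luc were plated 24 h in 3% DCC-FBS medium, then given compound followed by IL-6 (10 ng/mL final) for 24 h at 37 °C. Luciferase was read from lysates, with CellTiter-Glo viability on a duplicate plate. Stimulated 0.1% DMSO wells served as uninhibited control.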

[4] = test system: DU-145 prostate cancer cell line; assay: Cell growth inhibition assay, DU-145 (CellTiter-Glo); format: cell-based; settings: Homo sapiens; DU-145, 3,000 cells/well, 96 hours
How it was run: (§1)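 Cells seeded at 3,000 (DU-145), 5,000 (NCI-N87) or 10,000 (LNCaP, MDA-MB-468) per well, LNCaP in medium with 10 ng/mL IL-6. Serially diluted compound for 96 h at 37 °C (MDA-MB-468 in air, others 5% CO2); viability by CellTiter-Glo luminescence versus 0.1% DMSO wells.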

[5] = test system: LNCaP prostate cancer cell line; assay: Cell growth inhibition assay, LNCaP (CellTiter-Glo); format: cell-based; settings: Homo sapiens; LNCaP, 10,000 cells/well, medium with 10 ng/mL IL-6, 96 hours
How it was run: as §1

[6] = test system: NCI-N87 stomach cancer cell line; assay: Cell growth inhibition assay, NCI-N87 (CellTiter-Glo); format: cell-based; settings: Homo sapiens; NCI-N87, 5,000 cells/well, 96 hours
How it was run: as §1

Row | IC50 [1] | IC50 [2] | IC50 [3] | IC50 [4] | IC50 [5] | IC50 [6] | Compound
1 | > 50 µM | 0.0065 µM | 0.021 µM | 0.0057 µM | 0.013 µM | 0.034 µM | CC(C)(c1ccc2sc(C(=O)Nc3cc(Cl)nc(Oc4ccc(Cl)cc4)c3)cc2c1)S(C)(=O)=O [Example 64, N-(2-chloro-6-(4-chlorophenoxy)pyridin-4-yl)-5-(2-(methylsulfonyl)propan-2-yl)benzo[b]thiophene-2-carboxamide]
2 | > 50 µM | 0.024 µM | 0.089 µM |  |  | 0.15 µM | CC(C)(c1ccc2sc(C(=O)Nc3cc(Cl)nc(OCc4ccc(Cl)cc4)c3)cc2c1)S(C)(=O)=O [Example 86, N-(2-chloro-6-((4-chlorobenzyl)oxy)pyridin-4-yl)-5-(2-(methylsulfonyl)propan-2-yl)benzo[b]thiophene-2-carboxamide]
3 | > 50 µM | 0.068 µM | 0.46 µM |  |  | 1.7 µM | Cc1cnc(Oc2cc(NC(=O)c3cc4cc(C(C)(C)S(C)(=O)=O)ccc4s3)cc(Cl)n2)s1 [Example 109, N-(2-chloro-6-((5-methylthiazol-2-yl)oxy)pyridin-4-yl)-5-(2-(methylsulfonyl)propan-2-yl)benzo[b]thiophene-2-carboxamide]
4 | > 50 µM | 0.021 µM | 0.019 µM |  |  | 0.14 µM | Cc1sccc1Oc1cc(NC(=O)c2cc3cc(C(C)(C)S(C)(=O)=O)ccc3s2)cc(Cl)n1 [Example 115, N-(2-chloro-6-((2-methylthiophen-3-yl)oxy)pyridin-4-yl)-5-(2-(methylsulfonyl)propan-2-yl)benzo[b]thiophene-2-carboxamide]
5 | > 50 µM | 0.062 µM | 0.2 µM |  |  | 0.91 µM | Cc1onc(Oc2cc(NC(=O)c3cc4cc(C(C)(C)S(C)(=O)=O)ccc4s3)cc(Cl)n2)c1C [Example 116, N-(2-chloro-6-((4,5-dimethylisoxazol-3-yl)oxy)pyridin-4-yl)-5-(2-(methylsulfonyl)propan-2-yl)benzo[b]thiophene-2-carboxamide]
6 | > 50 µM | 0.0053 µM | 0.028 µM |  |  | 0.037 µM | CC(C)(c1ccc2sc(C(=O)Nc3cc(Cl)nc(Oc4csc(C(F)(F)F)c4)c3)cc2c1)S(C)(=O)=O [Example 117, N-(2-chloro-6-((5-(trifluoromethyl)thiophen-3-yl)oxy)pyridin-4-yl)-5-(2-(methylsulfonyl)propan-2-yl)benzo[b]thiophene-2-carboxamide]
7 | 12.8 µM | > 0.1 µM | 2.8 µM |  |  | 7.8 µM | Cc1csc(Oc2cc(NC(=O)c3cc4cc(C(C)(C)S(C)(=O)=O)ccc4s3)cc(Cl)n2)n1 [Example 119, N-(2-chloro-6-((4-methylthiazol-2-yl)oxy)pyridin-4-yl)-5-(2-(methylsulfonyl)propan-2-yl)benzo[b]thiophene-2-carboxamide]
8 | 39.6 µM | 0.026 µM | 0.078 µM |  |  | 0.12 µM | Cc1ccc(Oc2cc(NC(=O)c3cc4cc(C(C)(C)S(C)(=O)=O)ccc4s3)cc(Cl)n2)s1 [Example 120, N-(2-chloro-6-((5-methylthiophen-2-yl)oxy)pyridin-4-yl)-5-(2-(methylsulfonyl)propan-2-yl)benzo[b]thiophene-2-carboxamide]
9 | > 50 µM | 0.027 µM | 0.027 µM |  |  | 0.15 µM | CC(C)(c1ccc2sc(C(=O)Nc3cc(Cl)nc(Oc4ccsc4Cl)c3)cc2c1)S(C)(=O)=O [Example 121, N-(2-chloro-6-((2-chlorothiophen-3-yl)oxy)pyridin-4-yl)-5-(2-(methylsulfonyl)propan-2-yl)benzo[b]thiophene-2-carboxamide]
